Values joined by “and” are separate entries in the source; they are usually repeats but may differ in a detail not shown here. Equal entries are not always repeated. “Also recorded” adds a separate entry of the source.
Experiments:
[1] = biological target: T1, PKCβII (Homo sapiens, UniProt P05771); assay: Lance-FRET kinase assay, PKCβII; format: biochemical; conditions: Figure 1B
T1 construct: purchased SignalChem Biotech
Method: Kinase assays. CP612 was assayed against His-AVI–tagged human PKCε (1 nM) produced in Sf9 cells, and ROCK1 (Carna Biosciences; 5 nM) using the Lance-FRET kinase assay system (PerkinElmer Revvity). Other human recombinant PKCs (SignalChem Biotech) were assayed in triplicate at the following concentrations: PKCβII 1.6 nM, PKCγ 500 pM, PKCδ 5 nM, PKCθ 500 pM, and PKCζ 500 pM. PKCs were incubated in a 15 μL reaction volume with kinase buffer (20 mM Tris-HCL [pH 7.4], 10 mM MgCl2, 0.25 mM EGTA, 0.1 mg/mL BSA, and 0.15% Triton X-100), 50 nM ULight-labeled CREBtide […] (PerkinElmer, TRF0107, Revvity), and test compound. […] After incubation at 27°C for another 60 minutes, phosphorylation was detected using a FlexStation 3 Microplate Reader (Molecular Devices) in LANCE TR-FRET mode (excitation = 340 nm, emission = 665 nm) and expressed as relative fluorescence units (RFU). The percentage of inhibition was calculated as: (signal without test compound − signal with test compound)/(signal without test compound − signal without ATP) × 100. […]
Kinase assays used 11-point concentration-response curves and results were analyzed by nonlinear regression using Prism 9 (GraphPad Software) to determine IC50 values. […] Scores for pain threshold, conditioned place preference, and self-administration were analyzed by ANOVA using the following factors. […]

[2] = system: conditioned place aversion; assay: Conditioned place aversion precipitated by naloxone; format: in vivo, DBA/2J mice; conditions: for Preference score: individual mice, time in environment paired with naloxone (5 mg/kg, i.p.) minus time in it at baseline, negative = aversion
Method: In addition to hyperalgesia, withdrawal from repeated administration of morphine produces somatic signs of withdrawal and conditioned place aversion. We tested the effects of CP612 on these responses. […] Two hours after this last injection of saline or morphine, mice were administered naloxone (5 mg/kg, i.p.) to precipitate somatic signs of withdrawal and conditioned place aversion. Withdrawal from repeated administration of morphine evoked somatic signs of withdrawal (Figure 11, A–C, and Supplemental Figure 2); only the highest dose of CP612 (40 mg/kg) reduced them (Figure 11, A–C) [H PKC inhibition (3, n = 62) = 33.34, P < 0.001]. Withdrawal from repeated administration of morphine also evoked conditioned place aversion (Figure 11, A and C) [F PKC inhibition (5,78) = 7.16, P < 0.001; mice receiving repeated administration of saline with vehicle versus mice receiving repeated administration of morphine with vehicle, P < 0.001], and this was not modified by CP612 at any dose tested (all P > 0.079).
The place conditioning apparatus was an acrylic box enclosed in light- and sound-attenuating, ventilated chambers (MED Associates). The box had 2 compartments separated by a removable sliding door. […] The dimensions of each compartment were 13.5 × 27 × 17 cm. Infrared light beams and photodetectors located along the walls of the box measured general activity and location of the mouse in each compartment, which were recorded using Activity Monitor version 7.0.5.10 software (Med Associates). On day 0 (pretest), drug-naive mice were acclimated for 15 minutes to the place conditioning apparatus without the sliding door, so they had free access to both compartments of the apparatus. This established a baseline side preference, based on the amount of time spent in each compartment. […] On day 6 (conditioning day), mice were pretreated with vehicle (10 mL/kg, i.p.) or CP612 (5, 10, 20, or 40 mg/kg, i.p.), followed by a single injection of morphine (100 mg/kg, i.p.) 4 hours later. Two hours after this last injection of morphine, mice were administered naloxone (5 mg/kg, i.p.), to precipitate withdrawal, and were immediately confined to 1 side of the conditioning apparatus for 20 minutes. During this conditioning period, mice were filmed (Raspberry Pi Camera) to assess somatic signs of withdrawal ([39]). Given the limited number of cameras and the poor quality of some videos, we were only able to film a subset of mice. The following behaviors were given a score of 1 per occurrence and episode: body shakes (paw tremors and wet dog shakes), teeth chatter, rearing, hopping, wall climbing, and backpedaling. These scores were summed to obtain a global withdrawal score and were obtained from an independent observer who was blind to the experimental conditions. A subset of videos was scored by 2 observers, to ensure internal validity (Cronbach’s α = 0.980, Correlation Observer r = 0.97, slope 1.15, P < 0.005). On day 7 (test day), mice were placed in the conditioning apparatus with free access to both compartments, for 15 minutes. We recorded the time spent in each compartment.

[3] = system: PKCε-dependent mechanical hyperalgesia; assay: Hyperalgesia induced by the PKCε activator ψεRACK, Randall-Selitto paw pressure test; conditions: for Force applied that led to paw withdrawal: one paw
Method: Thirty minutes later, rats were administered vehicle (5 μL, intradermally) or CP612 (1 μg/5 μL, intradermally) (Figure 3). We measured nociceptive thresholds at the same site, at baseline, 30 minutes after the administration of ψεRACK (time 0) and 15, 30, and 60 minutes after the administration of vehicle or CP612.
Mechanical nociceptive thresholds in rats were quantified by the Randall-Selitto paw pressure test using an Ugo Basile Analgesy-Meter. This device applies a linearly increasing mechanical force to the dorsum or plantar region of the rat hind paw. The mechanical nociceptive threshold is defined as the force in grams at which a rat withdraws its paw. […] For studies testing nociceptive thresholds after the PKCε activator ψεRACK, or after the cancer chemotherapeutic drug paclitaxel, rats were placed into cylindrical acrylic restrainers for 40 minutes before starting each session. The restrainers had lateral ports to allow access to the hind paw, as previously described ([35]), and pain thresholds were measured by applying force to the dorsum of the hind paw. Prior to starting experiments, baseline mechanical nociceptive threshold was obtained as the mean of 2–3 readings on 1 hind paw in each rat.

T1 sequence (P05771 1-673 isoform P05771-2): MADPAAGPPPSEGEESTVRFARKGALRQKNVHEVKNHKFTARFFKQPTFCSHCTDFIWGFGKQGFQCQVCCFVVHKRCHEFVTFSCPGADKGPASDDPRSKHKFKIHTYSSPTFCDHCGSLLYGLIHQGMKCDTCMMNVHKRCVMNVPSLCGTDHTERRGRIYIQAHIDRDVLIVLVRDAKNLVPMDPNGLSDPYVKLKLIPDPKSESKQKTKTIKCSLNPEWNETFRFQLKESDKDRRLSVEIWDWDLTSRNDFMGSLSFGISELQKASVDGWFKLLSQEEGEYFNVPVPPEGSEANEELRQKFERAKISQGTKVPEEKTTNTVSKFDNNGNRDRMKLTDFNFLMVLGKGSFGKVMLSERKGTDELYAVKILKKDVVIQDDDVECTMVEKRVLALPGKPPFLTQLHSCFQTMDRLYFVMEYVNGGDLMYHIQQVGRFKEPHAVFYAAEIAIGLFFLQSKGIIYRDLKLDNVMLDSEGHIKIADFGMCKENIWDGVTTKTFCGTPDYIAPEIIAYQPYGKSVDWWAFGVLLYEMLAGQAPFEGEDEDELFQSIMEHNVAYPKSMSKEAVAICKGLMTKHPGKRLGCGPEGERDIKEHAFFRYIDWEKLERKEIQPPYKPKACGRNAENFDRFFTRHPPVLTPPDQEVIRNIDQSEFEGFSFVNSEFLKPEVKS

## N[C@H](CNC(=O)C1(c2ccc(Cl)cc2)CCCC1)c1ccc(C(=O)Nc2ccncc2)cc1 [CP612]
[1]
  Inhibition of conventional PKCβII: weakly inhibited
[2]; Morphine + CP612 5 mg/kg
  Preference score: -0.0843 and -0.28 and -0.22 and -0.17 and -0.023 and -0.35
[2]; Morphine + CP612 10 mg/kg
  Preference score: -0.07 and -0.22 and -0.42 and -0.21 and -0.19 and -0.38 and -0.15 and -0.12 and 0.14 and -0.13 and -0.10 and 0.0341 and -0.23
[2]; Morphine + CP612 20 mg/kg
  Preference score: -0.0656 and -0.40 and -0.13 and -0.25 and -0.10 and -0.30 and -0.31
[2]; Morphine + CP612 40 mg/kg
  Preference score: -0.17 and -0.18 and -0.35 and -0.39 and 0.000111 and -0.22 and 0.013 and -0.28 and -0.25 and -0.09 and -0.27
[2]; male DBA/2J mice, CP612 5, 10, 20, 40 mg/kg i.p.
  Effect on conditioned place aversion: not modified
[3]; 0min (30 min after ψεRACK, before CP612)
  Force applied that led to paw withdrawal: 90 grams and 100 grams and 96.7 grams
[3]; 5min after CP612 1µg/5µL intradermally
  Force applied that led to paw withdrawal: 120 grams and 130 grams and 115 grams and 105 grams
[3]; 10min after CP612 1µg/5µL intradermally
  Force applied that led to paw withdrawal: 100 grams and 110 grams and 130 grams and 115 grams and 120 grams and 135 grams
[3]; 15min after CP612 1µg/5µL intradermally
  Force applied that led to paw withdrawal: 90 grams and 125 grams and 130 grams and 110 grams and 115 grams and 100 grams
[3]; 30min after CP612 1µg/5µL intradermally
  Force applied that led to paw withdrawal: 120 grams and 123.3 grams and 125 grams and 115 grams
[3]; 60min after CP612 1µg/5µL intradermally
  Force applied that led to paw withdrawal: 105 grams and 110 grams and 115 grams and 130 grams and 120 grams
[3]; baseline (before ψεRACK and CP612)
  Force applied that led to paw withdrawal: 130 grams and 120 grams and 125 grams
[3]; male rats, CP612 1 μg/5 μL intradermally 30 min after ψεRACK, up to 60 minutes
  Effect on ψεRACK-induced hyperalgesia: reduced; also recorded: near-complete reversal; also recorded: attenuated
